According to PubChem BioAssay (NCI):
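Test compounds were applied to cells in 96-well plates for 48 hours at 5 doses. GI50 = concentration required for 50% inhibition of growth. TGI marks complete inhibition of growth.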

Legend:
Test in all cases: DTP human tumour cell line panel, 48 h
RPMI-8226 leukemia = tested on: RPMI-8226 leukemia
OVCAR-4 ovarian = tested on: OVCAR-4 ovarian
CCRF-CEM leukemia = tested on: CCRF-CEM leukemia
HCT-116 colon = tested on: HCT-116 colon
NCI/ADR-RES ovarian = tested on: NCI/ADR-RES ovarian
NCI-H23 lung = tested on: NCI-H23 lung
MDA-MB-231 breast = tested on: MDA-MB-231 breast
786-0 renal = tested on: 786-0 renal
OVCAR-8 ovarian = tested on: OVCAR-8 ovarian
SNB-19 CNS = tested on: SNB-19 CNS

Structure (SMILES)	GI50 (RPMI-8226 leukemia)	TGI (RPMI-8226 leukemia)	GI50 (OVCAR-4 ovarian)	TGI (OVCAR-4 ovarian)	GI50 (CCRF-CEM leukemia)	TGI (CCRF-CEM leukemia)	GI50 (HCT-116 colon)	TGI (HCT-116 colon)	GI50 (NCI/ADR-RES ovarian)	TGI (NCI/ADR-RES ovarian)	GI50 (NCI-H23 lung)	TGI (NCI-H23 lung)	GI50 (MDA-MB-231 breast)	TGI (MDA-MB-231 breast)	GI50 (786-0 renal)	TGI (786-0 renal)	GI50 (OVCAR-8 ovarian)	TGI (OVCAR-8 ovarian)	GI50 (SNB-19 CNS)	TGI (SNB-19 CNS)
CCN1CCN(Cc2ccc(Nc3ncc(F)c(-c4cc(F)c5nc(C)n(C(C)C)c5c4)n3)nc2)CC1	6.68 µM	19.1 µM	6.49 µM	16.2 µM	1.14 µM	15 µM	0.336 µM	11.7 µM	10.4 µM	26.2 µM	3.26 µM	15.2 µM	6.29 µM	13 µM	4.74 µM	13.2 µM	9.58 µM	26.2 µM	5.48 µM	12.4 µM
Cc1cc(S(=O)(=O)Nc2nc3ccccc3c(=O)n2Cc2ccco2)c(S)cc1Cl	27 µM	> 100 µM	87.7 µM	> 100 µM	29.2 µM	> 100 µM	42.3 µM	> 100 µM	54.8 µM	> 100 µM	46 µM	> 100 µM	38.5 µM	> 100 µM	36.1 µM	> 100 µM	57.7 µM	> 100 µM		> 100 µM
c1cc[n+](Cc2c3ccccc3cc3c2ccc2ccccc23)cc1	2.31 µM	8.87 µM	3.57 µM	14.3 µM	4.73 µM	24 µM	4.77 µM	17.1 µM	> 100 µM	> 100 µM	1.71 µM	11.6 µM	6.08 µM	20 µM	4.83 µM	26.1 µM	3.49 µM	16.1 µM	1.18 µM	7.85 µM
CCCCCc1cc(/C=C2/N=C(c3ccc[nH]3)C=C2OC)[nH]c1C				0.351 µM		0.209 µM		< 0.0387 µM		1.14 µM		0.346 µM		0.0999 µM		< 0.0459 µM		1.25 µM		1.5 µM
C#CN1C(=O)c2c(c(-c3ccccc3)c(-c3ccc(Oc4ccc(-c5c(-c6ccccc6)c6c(c(-c7ccccc7)c5-c5ccccc5)C(=O)N(C#C)C6=O)cc4)cc3)c(-c3ccccc3)c2-c2ccccc2)C1=O		> 100 µM		> 100 µM		> 100 µM		> 100 µM				> 100 µM				> 100 µM		> 100 µM		> 100 µM
COc1ccc(N=Nc2ccc(O)c(=O)cc2)cc1	2.68 µM	43.7 µM	5.05 µM	> 100 µM	2.18 µM	9.94 µM	2.58 µM	15.4 µM			3.02 µM	> 100 µM	4.62 µM	> 100 µM	3.07 µM	> 100 µM	2.88 µM	> 100 µM	2.92 µM	51.6 µM
O=C(O)C1=Cc2cccc3cccc(c23)C1=O		> 100 µM		> 100 µM		> 100 µM		> 100 µM				> 100 µM				> 100 µM		> 100 µM		> 100 µM
CCOC(=O)CCc1c(C)c2c(OC)cc(OC)cc2oc1=O				> 100 µM				> 100 µM				> 100 µM				> 100 µM		> 100 µM		> 100 µM
OC1(C(Sc2ccccc2)Sc2ccccc2)CCCCCC1		52.4 µM		> 100 µM		77.3 µM		72.3 µM				> 100 µM				64.9 µM		> 100 µM		77.4 µM
Cc1ccc2ncnc(N(C)C3CCCCC3)c2c1	6.11 µM	28.7 µM	76.5 µM	> 100 µM	34.7 µM	> 100 µM	36.7 µM	> 100 µM	19.1 µM	53 µM	26.5 µM	74.4 µM			32.3 µM	> 100 µM	14.6 µM	63.8 µM	59.5 µM	> 100 µM
N#CC1=C(N)N=C(N2CCOCC2)C(C#N)C12Nc1ccccc1S2 (centres undefined)	16 µM	88.5 µM					35.4 µM	> 100 µM	39.3 µM	75.9 µM			26.7 µM	> 100 µM	29.6 µM	76.2 µM	4.23 µM	59.5 µM	33.8 µM	> 100 µM
NNC(=O)/C(NC(=O)c1ccccc1)=C(\N)c1cccc([N+](=O)[O-])c1		> 100 µM		> 100 µM		> 100 µM		> 100 µM				> 100 µM				> 100 µM		> 100 µM		> 100 µM
O=C(CCN1CCCCC1)c1csc2ccccc12		> 100 µM		> 100 µM				> 100 µM		> 100 µM		> 100 µM		> 100 µM		> 100 µM		> 100 µM		> 100 µM
Cc1ccccc1N(CCC#N)C1=NN(C(=O)CC(=O)Nc2ccc(Cl)cc2)C(c2ccccc2)C1 (centres undefined)		> 100 µM		> 100 µM		> 100 µM		> 100 µM				> 100 µM				> 100 µM		> 100 µM		> 100 µM
O=c1cccccc1[O-].O=c1cccccc1[O-].O=c1cccccc1[O-].[Nd+3]		> 100 µM		> 100 µM		> 100 µM		68.4 µM				> 100 µM				> 100 µM		90.7 µM		> 100 µM
CC(=O)OCc1nnn2c1C(OC(C)=O)CC2 (centres undefined)		> 100 µM		> 100 µM				> 100 µM				> 100 µM				> 100 µM		> 100 µM		> 100 µM
C[C@@H](NC1CCCC[C@@H]1O)c1ccccc1 (some centres undefined)		> 100 µM		> 100 µM		> 100 µM		> 100 µM								> 100 µM		> 100 µM		> 100 µM
OC1CC(O)O[C@H](c2ccccc2)C1 (some centres undefined)		> 100 µM		> 100 µM		> 100 µM		> 100 µM				> 100 µM				> 100 µM		> 100 µM		> 100 µM
Cc1[nH]c(=O)n2c(C)nnc2c1C(=O)O		> 100 µM		> 100 µM		> 100 µM		> 100 µM				> 100 µM				> 100 µM		> 100 µM		
CC(=O)OC(C(=O)[O][Ge]([CH3])([CH3])[CH3])c1ccccc1 (centres undefined)			> 100 µM	> 100 µM			> 100 µM	> 100 µM			> 100 µM	> 100 µM			> 100 µM	> 100 µM	> 100 µM	> 100 µM	> 100 µM	> 100 µM
CC1=C2CC[C@@]3(C)C(=CCC3O)C2(C)CCC1=O (some centres undefined)		> 100 µM		> 100 µM		> 100 µM		> 100 µM								> 100 µM		> 100 µM		> 100 µM
